# Measurements from PubChem BioAssay (NCI).
#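 Grown in 96-well plates, cells were treated for 48 hours with each compound at five concentrations. Insufficient inhibition: endpoint recorded as highest concentration tested. TGI: total growth inhibition.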
# Columns and labels:
# Assay in all cases: inhibition of tumour cell growth, NCI panel, 48 h
# DMS 273 small cell lung = tested on: DMS 273 small cell lung
# 786-0 renal = tested on: 786-0 renal
# UACC-257 melanoma = tested on: UACC-257 melanoma
# M14 melanoma = tested on: M14 melanoma
# HT29 colon = tested on: HT29 colon
# CCRF-CEM leukemia = tested on: CCRF-CEM leukemia
# SNB-19 CNS = tested on: SNB-19 CNS
# IGROV1 ovarian = tested on: IGROV1 ovarian
# RPMI-8226 leukemia = tested on: RPMI-8226 leukemia
# SK-MEL-5 melanoma = tested on: SK-MEL-5 melanoma
# OVCAR-8 ovarian = tested on: OVCAR-8 ovarian
# OVCAR-3 ovarian = tested on: OVCAR-3 ovarian
# NCI-H23 lung = tested on: NCI-H23 lung
# DMS 114 small cell lung = tested on: DMS 114 small cell lung
# A549 NSCLC = tested on: A549 NSCLC
# HCT-116 colon = tested on: HCT-116 colon
# K-562 leukemia = tested on: K-562 leukemia
# SN12C renal = tested on: SN12C renal
# EKVX NSCLC = tested on: EKVX NSCLC
# COLO 205 colon = tested on: COLO 205 colon
# LXFL 529 NSCLC = tested on: LXFL 529 NSCLC
# NCI-H522 lung = tested on: NCI-H522 lung
# SF-295 CNS = tested on: SF-295 CNS
# SR leukemia = tested on: SR leukemia
# SK-MEL-28 melanoma = tested on: SK-MEL-28 melanoma
# SF-539 CNS = tested on: SF-539 CNS
# HOP-92 NSCLC = tested on: HOP-92 NSCLC
# HCC-2998 colon = tested on: HCC-2998 colon
# ACHN renal = tested on: ACHN renal
# SNB-78 CNS = tested on: SNB-78 CNS
# HOP-18 NSCLC = tested on: HOP-18 NSCLC
# SF-268 CNS = tested on: SF-268 CNS
# RXF 393 renal = tested on: RXF 393 renal
# SNB-75 CNS = tested on: SNB-75 CNS
# HL-60(TB) leukemia = tested on: HL-60(TB) leukemia
# SK-OV-3 ovarian = tested on: SK-OV-3 ovarian
# OVCAR-4 ovarian = tested on: OVCAR-4 ovarian
# U251 CNS = tested on: U251 CNS
# SW-620 colon = tested on: SW-620 colon
# UACC-62 melanoma = tested on: UACC-62 melanoma
# OVCAR-5 ovarian = tested on: OVCAR-5 ovarian
# KM20L2 colon = tested on: KM20L2 colon
# HOP-62 NSCLC = tested on: HOP-62 NSCLC
# SK-MEL-2 melanoma = tested on: SK-MEL-2 melanoma
# MALME-3M melanoma = tested on: MALME-3M melanoma
# MOLT-4 leukemia = tested on: MOLT-4 leukemia
# DLD-1 colon = tested on: DLD-1 colon
# HCT-15 colon = tested on: HCT-15 colon
# UO-31 renal = tested on: UO-31 renal
# NCI-H460 lung = tested on: NCI-H460 lung
# KM12 colon = tested on: KM12 colon
# M19-MEL melanoma = tested on: M19-MEL melanoma
# NCI-H226 lung = tested on: NCI-H226 lung
# A498 renal = tested on: A498 renal
# TK-10 renal = tested on: TK-10 renal
# CAKI-1 renal = tested on: CAKI-1 renal
smiles,measurement,setting,value
Cc1noc(C)c1C1=CCCCc2ccccc21,TGI,DMS 273 small cell lung,> 100 µM
same,TGI,786-0 renal,> 100 µM
same,TGI,UACC-257 melanoma,> 100 µM
same,TGI,M14 melanoma,> 100 µM
same,TGI,HT29 colon,> 100 µM
same,TGI,CCRF-CEM leukemia,> 100 µM
same,TGI,SNB-19 CNS,> 100 µM
same,TGI,IGROV1 ovarian,> 100 µM
same,TGI,RPMI-8226 leukemia,> 100 µM
same,TGI,SK-MEL-5 melanoma,> 100 µM
same,TGI,OVCAR-8 ovarian,> 100 µM
same,TGI,OVCAR-3 ovarian,> 100 µM
same,TGI,NCI-H23 lung,> 100 µM
same,TGI,DMS 114 small cell lung,> 100 µM
same,TGI,A549 NSCLC,> 100 µM
same,TGI,HCT-116 colon,> 100 µM
same,TGI,K-562 leukemia,> 100 µM
same,TGI,SN12C renal,> 100 µM
same,TGI,EKVX NSCLC,> 100 µM
same,TGI,COLO 205 colon,> 100 µM
same,TGI,LXFL 529 NSCLC,> 100 µM
same,TGI,NCI-H522 lung,> 100 µM
same,TGI,SF-295 CNS,> 100 µM
same,TGI,SR leukemia,74.9 µM
same,TGI,SK-MEL-28 melanoma,> 100 µM
same,TGI,SF-539 CNS,> 100 µM
same,TGI,HOP-92 NSCLC,85.1 µM
same,TGI,HCC-2998 colon,> 100 µM
same,TGI,ACHN renal,> 100 µM
same,TGI,SNB-78 CNS,> 100 µM
same,TGI,HOP-18 NSCLC,> 100 µM
same,TGI,SF-268 CNS,> 100 µM
same,TGI,RXF 393 renal,> 100 µM
same,TGI,SNB-75 CNS,88.2 µM
same,TGI,HL-60(TB) leukemia,62.7 µM
same,TGI,SK-OV-3 ovarian,> 100 µM
same,TGI,OVCAR-4 ovarian,> 100 µM
same,TGI,U251 CNS,> 100 µM
same,TGI,SW-620 colon,> 100 µM
same,TGI,UACC-62 melanoma,> 100 µM
same,TGI,OVCAR-5 ovarian,> 100 µM
same,TGI,KM20L2 colon,> 100 µM
same,TGI,HOP-62 NSCLC,> 100 µM
same,TGI,SK-MEL-2 melanoma,> 100 µM
same,TGI,MALME-3M melanoma,> 100 µM
same,TGI,MOLT-4 leukemia,> 100 µM
same,TGI,DLD-1 colon,> 100 µM
same,TGI,HCT-15 colon,> 100 µM
same,TGI,UO-31 renal,> 100 µM
same,TGI,NCI-H460 lung,> 100 µM
same,TGI,KM12 colon,> 100 µM
same,TGI,M19-MEL melanoma,> 100 µM
C=CCC12CC(=O)CCC1CC(=O)C2 (configuration not stated),TGI,DMS 273 small cell lung,> 100 µM
same,TGI,786-0 renal,> 100 µM
same,TGI,UACC-257 melanoma,> 100 µM
same,TGI,M14 melanoma,> 100 µM
same,TGI,CCRF-CEM leukemia,> 100 µM
same,TGI,NCI-H226 lung,> 100 µM
same,TGI,SNB-19 CNS,> 100 µM
same,TGI,IGROV1 ovarian,> 100 µM
same,TGI,RPMI-8226 leukemia,> 100 µM
same,TGI,SK-MEL-5 melanoma,> 100 µM
same,TGI,OVCAR-8 ovarian,> 100 µM
same,TGI,OVCAR-3 ovarian,> 100 µM
same,TGI,DMS 114 small cell lung,> 100 µM
same,TGI,A549 NSCLC,> 100 µM
same,TGI,HCT-116 colon,> 100 µM
same,TGI,K-562 leukemia,> 100 µM
same,TGI,SN12C renal,> 100 µM
same,TGI,COLO 205 colon,> 100 µM
same,TGI,A498 renal,> 100 µM
same,TGI,LXFL 529 NSCLC,> 100 µM
same,TGI,NCI-H522 lung,> 100 µM
same,TGI,SR leukemia,> 100 µM
same,TGI,SK-MEL-28 melanoma,> 100 µM
same,TGI,SF-539 CNS,> 100 µM
same,TGI,HCC-2998 colon,> 100 µM
same,TGI,ACHN renal,> 100 µM
same,TGI,SNB-78 CNS,> 100 µM
same,TGI,TK-10 renal,> 100 µM
same,TGI,HOP-18 NSCLC,> 100 µM
same,TGI,SF-268 CNS,> 100 µM
same,TGI,RXF 393 renal,> 100 µM
same,TGI,SNB-75 CNS,> 100 µM
same,TGI,HL-60(TB) leukemia,> 100 µM
same,TGI,SK-OV-3 ovarian,> 100 µM
same,TGI,OVCAR-4 ovarian,> 100 µM
same,TGI,U251 CNS,> 100 µM
same,TGI,SW-620 colon,> 100 µM
same,TGI,UACC-62 melanoma,> 100 µM
same,TGI,KM20L2 colon,> 100 µM
same,TGI,HOP-62 NSCLC,> 100 µM
same,TGI,SK-MEL-2 melanoma,> 100 µM
same,TGI,MALME-3M melanoma,> 100 µM
same,TGI,CAKI-1 renal,> 100 µM
same,TGI,MOLT-4 leukemia,> 100 µM
same,TGI,DLD-1 colon,> 100 µM
same,TGI,HCT-15 colon,> 100 µM
same,TGI,UO-31 renal,> 100 µM
same,TGI,NCI-H460 lung,> 100 µM
same,TGI,KM12 colon,> 100 µM
same,TGI,M19-MEL melanoma,> 100 µM
